Results reported in patent publication US12396995B2, “Substituted 4-aminoisoindoline-1,3-dione compounds and second active agents for combined use” (Celgene Corporation, priority 2019, dated 2025).

Tests used:
[1] = tested on: cell lines from hematological malignancies; assay: Cell Titer Glo proliferation, Compound 1 in combination with second active agents; format: cell-based; details: very sensitive cell lines such as JJN-3, SU-DHL2 or SU-DHL10; combined with Compound 1
Experimental: Cell Lines/Cells: Activated B-Cell (ABC) cell lines: TMD-8, SU-DHL-2, OCI-Ly10, RIVA, U2932; and Germinal Center B-cell (GCB) cell lines: SU-DHL10, Pfeiffer, WSU-DLCL2, SU-DHL4, DB; myeloma cell lines: H929, JJN3 and SK-MM1; acute myeloid leukemia cell line: HNT-34; acute lymphocytic leukemia cell line: Karpas-231; other lymphoma cell lines: Daudi, Karpas-299, HuT-102, L-428.
Alternatively, combination compound solutions were serially diluted from 5 μM starting concentration and serially diluted 6-fold for a 6-point dilution curve. […] Cells were added to each well and cultured for 3 days. […] For some other epigenetic agents (EPZ5676, C646, OICR-9429, ACY-241, GSK3484862, Compound C, UNC 0631, GSK3326595, LP99, A-196, CARM1 EZM2302) cells were cultured for 5 days due to their mechanism of action.
Plates were either made at a concentration of 10 μM or 1 μM diluted 3-fold for a 10-point dilution curve, with a final DMSO concentration of 0.2%. All cell line solutions were diluted to a concentration of 100,000 cells/mL and added to each well in a volume of 50 μL, with the exception of SU-DHL-6 solution, which was diluted to 25,000 cells/mL. At the end of the treatment period cells were lysed with Cell Titer Glo (CTG) reagents following manufacture recommendation. Luminescent signal was read using an Envision and data was normalized by DMSO for data analysis.
Data Analysis: The combination effect was analyzed by combining results from Highest Single Agent (HSA) and Bliss Independency methods. See, e.g., Foucquier J, Guedj M., Analysis of drug combinations: current methodological landscape. Pharmacol Res Perspect. 2015; 3(3):e00149. doi:10.1002/prp2.149.
Combined results of HSA and Bliss scores were used to define synergistic and additive effect of the combinations.

[2] = tested on: WSU-DLCL2 DLBCL xenograft tumors; assay: WSU-DLCL2 (DLBCL) xenograft model, Compound 1 alone and with tazemetostat; format: in vivo, female SCID mice; details: single agent tazemetostat 200 mg/kg oral BID, three weeks
Experimental: (§1) Anti-tumor activity of Compound 1 alone and in combination with tazemetostat was studied in WSU-DLCL2 (DLBCL) xenograft model. Compound 1 (1 mg/kg) was administered once daily for 5 consecutive days followed by 2 days off (5 D on/2 D off) and tazemetostat (200 mg/kg) was administered twice daily (BID).
(§2) Methods: Xenograft study was conducted with female SCID mice bearing WSU-DLCL2 DLBCL xenograft tumors. Female SCID mice were inoculated subcutaneously with WSU-DLCL2 cells in the flank region above the right hind leg. Following inoculation of animals, the tumors were allowed to grow to approximately 200 mm^3 prior to randomization. On day 14 following tumor cell inoculation, the mice bearing WSU-DLCL2 tumors ranging between 150 and 250 mm^3 were pooled together and randomized into various treatment groups. Compound 1 was formulated in 0.5% Methyl Cellulose, 0.25% Tween 80 and 50 mM Citrate pH 3 in water. Tazemetostat was formulated in CMC-Tween. Compound 1 (1 mg/kg) was orally administered with three cycles of once daily for 5 consecutive days followed by 2 days off starting from day 14 after tumor cell inoculation. Tazemetostat 200 mg/kg) was orally administered twice day (BID) for three weeks. In combination group the animals received Compound 1 (1 mg/kg/5 D on/2 D off) and tazemetostat (200 mg/kg, BID) simultaneously for three weeks starting from day 14 after tumor cell inoculation. Tumors were measured twice a week using calipers and tumor volumes were calculated using the formula of W^2×L/2. Statistical analysis was performed using a one-way or 2-way analysis of variance (ANOVA). Synergy calculations were performed using fractional product method.

[3] = tested on: DB DLBCL xenograft tumors; assay: DB (DLBCL) xenograft model, Compound 1 alone and with tazemetostat; format: in vivo, female SCID mice; details: single agent tazemetostat 200 mg/kg oral BID, three weeks
Experimental: as §1, with “DB” for “WSU-DLCL2”, “(3, 10 or 30” for “(1”
as §2, with “bearing DB” for “bearing WSU-DLCL2”, “with DB” for “with WSU-DLCL2”, “day 33” for “day 14”, “1 (3, 10 or 30” for “1 (1”, “Tazemetostat (200” for “Tazemetostat 200”, “1 (3, 10 or 30 mg/kg, 5” for “1 (1 mg/kg/5”

Structure (SMILES) | effect on proliferation of combination with Compound 1 (HSA and Bliss scores) [1] | further results
COc1cc(Nc2ncc3c(n2)-c2ccc(Cl)cc2C(c2c(F)cccc2OC)=NC3)ccc1C(=O)O [alisertib, 4-((9-chloro-7-(2-fluoro-6-methoxyphenyl)-5H-benzo[c]pyrimido[4,5-e]azepin-2-yl)amino)-2-methoxybenzoic acid] | synergistic effects | –
Cc1sc2c(c1C)C(c1ccc(Cl)cc1)=N[C@@H](CC(=O)Nc1ccc(O)cc1)c1nnc(C)n1-2 [birabresib, (S)-2-(4-(4-chlorophenyl)-2,3,9-trimethyl-6H-thieno[3,2-f][1,2,4]triazolo[4,3-a][1,4]diazepin-6-yl)-N-(4-hydroxyphenyl)acetamide] | synergistic effects | –
CO[C@H]1C[C@@H]2CC[C@@H](C)[C@@](O)(O2)C(=O)C(=O)N2CCCC[C@H]2C(=O)O[C@H]([C@H](C)C[C@@H]2CC[C@@H](OCCO)[C@H](OC)C2)CC(=O)[C@H](C)/C=C(\C)[C@@H](O)[C@@H](OC)C(=O)[C@H](C)C[C@H](C)/C=C/C=C/C=C/1C [everolimus, 40-O-(2-hydroxyethyl)-rapamycin] | synergistic effects | –
Cc1cnc(Nc2ccc(OCCN3CCCC3)cc2)nc1Nc1cccc(S(=O)(=O)NC(C)(C)C)c1 [fedratinib, N-tert-butyl-3-[(5-methyl-2-{4-[2-(pyrrolidin-1-yl)ethoxy]anilino}pyrimidin-4-yl)amino]benzenesulfonamide] | synergistic effects | –
Cc1[nH]c2ccccc2c1CCNCc1ccc(/C=C/C(=O)NO)cc1 [panobinostat, (2E)-N-hydroxy-3-[4-({[2-(2-methyl-1H-indol-3-yl)ethyl]amino}methyl)phenyl]acrylamide] | synergistic effects | –
CCN(c1cc(-c2ccc(CN3CCOCC3)cc2)cc(C(=O)NCc2c(C)cc(C)[nH]c2=O)c1C)C1CCOCC1 [tazemetostat, N-[(1,2-dihydro-4,6-dimethyl-2-oxo-3-pyridinyl)methyl]-5-[ethyl(tetrahydro-2H-pyran-4-yl)amino]-4-methyl-4′-(4-morpholinylmethyl)-[1,1′-biphenyl]-3-carboxamide, reference compound] | – | inhibition of tumor growth [2]: −50.5%; inhibition of tumor growth (TVR) [3]: 64.5%; inhibition of tumor growth (TVR) ([3]; listed as Tazemetostat): −45.9%
CC[C@]1(O)C[C@H]2CN(CCc3c([nH]c4ccccc34)[C@@](C(=O)OC)(c3cc4c(cc3OC)N(C=O)[C@H]3[C@@](O)(C(=O)OC)[C@H](OC(C)=O)[C@]5(CC)C=CCN6CC[C@]43[C@@H]65)C2)C1 [vincristine] | synergistic effects | –
